Laboratory results taken from ChEMBL document CHEMBL3885861, “Open TG-GATES”.

Species: Rattus norvegicus
Assay: Open TG-GATES - Regimen: Daily Repeat
Type: toxicity, organism-based, Sprague-Dawley
Design: regimen Daily Repeat, gender Male, age 6 weeks
Settings: in vivo, po, route gavage; for APTT / Bas / Eos / Fbg / Hb / Ht / Lym / MCH / MCHC / MCV / Mono / Neu / PT / Plat / RBC / Ret / WBC: tissue Blood; for KIDNEY_L / KIDNEY_R / KIDNEY_TOTAL: tissue Kidney; for LIVER: tissue Liver
[1] = 0 mg/kg, […], tissue Plasma, dose level Control, time 28 day
[2] = 100 mg/kg, 72 h, dose level Low, time 3 day
[3] = 100 mg/kg, 72 h, tissue Plasma, dose level Low, time 3 day
[4] = 100 mg/kg, […], dose level Low, time 7 day
[5] = 100 mg/kg, […], dose level Low, time 14 day
[6] = 100 mg/kg, […], dose level Low, time 28 day
[7] = 100 mg/kg, […], tissue Plasma, dose level Low, time 7 day
[8] = 100 mg/kg, […], tissue Plasma, dose level Low, time 14 day
[9] = 100 mg/kg, […], tissue Plasma, dose level Low, time 28 day

O=C(O)c1ccccc1Nc1ccccc1 [FENAMIC ACID]
RALB [1]: 2.8 g/dL | TBIL [1]: 0.05 mg/dL | TC [1]: 64.8 mg/dL | TG [1]: 134.8 mg/dL | TP [1]: 6.2 g/dL | gamma-GTP [1]: 1 IU/L | TERMINAL_BW [2]: 236.5 g | APTT [2]: 15.6 s | Bas [2]: 0.6% | Eos [2]: 1% | Fbg [2]: 286.4 mg/dL | Hb [2]: 13.5 g/dL | Ht [2]: 40.5% | Lym [2]: 79.6% | MCH [2]: 20.9 pg | MCHC [2]: 33.4% | MCV [2]: 62.6 fL | Mono [2]: 2% | Neu [2]: 16.8% | PT [2]: 14.2 s | Plat [2]: 122.4 x10_4/uL | RBC [2]: 647.6 x10_4/ul | Ret [2]: 7.2% | WBC [2]: 82.6 x10_2/uL | KIDNEY_L [2]: 1 g | KIDNEY_R [2]: 1 g | KIDNEY_TOTAL [2]: 2 g | LIVER [2]: 11.2 g | A/G [3]: 0.9 | ALP [3]: 1990.6 IU/L | ALT [3]: 37.6 IU/L | AST [3]: 64.2 IU/L | BUN [3]: 13.8 mg/dL | CRE [3]: 0.2 mg/dL | Ca [3]: 11.7 mg/dL | Cl [3]: 106.2 meq/L | GLC [3]: 184.4 mg/dL | IP [3]: 6.9 mg/dL | K [3]: 4.2 meq/L | LDH [3]: 82 IU/L | Na [3]: 143.6 meq/L | PL [3]: 144.2 mg/dL | RALB [3]: 2.7 g/dL | TC [3]: 75.6 mg/dL | TG [3]: 72.2 mg/dL | TP [3]: 5.6 g/dL | gamma-GTP [3]: 1.2 IU/L | TERMINAL_BW [4]: 277.8 g | TERMINAL_BW [5]: 337.7 g | TERMINAL_BW [6]: 419.6 g | APTT [4]: 16 s | Bas [4]: 0.6% | Eos [4]: 1% | Fbg [4]: 288.2 mg/dL | Hb [4]: 13.4 g/dL | Ht [4]: 39.6% | Lym [4]: 73% | MCH [4]: 20.9 pg | MCHC [4]: 33.9% | MCV [4]: 61.5 fL | Mono [4]: 2.6% | Neu [4]: 22.8% | PT [4]: 13.9 s | Plat [4]: 114.4 x10_4/uL | RBC [4]: 642.8 x10_4/ul | Ret [4]: 5.7% | WBC [4]: 82.6 x10_2/uL | APTT [5]: 16.8 s | Bas [5]: 0.8% | Eos [5]: 1% | Fbg [5]: 308.8 mg/dL | Hb [5]: 14.4 g/dL | Ht [5]: 41.6% | Lym [5]: 75.4% | MCH [5]: 20.8 pg | MCHC [5]: 34.5% | MCV [5]: 60.3 fL | Mono [5]: 2.4% | Neu [5]: 20.2% | PT [5]: 13.7 s | Plat [5]: 118.3 x10_4/uL | RBC [5]: 689.4 x10_4/ul | Ret [5]: 4.5% | WBC [5]: 82.2 x10_2/uL | APTT [6]: 17.2 s | Bas [6]: 0.2% | Eos [6]: 1% | Fbg [6]: 305.2 mg/dL | Hb [6]: 15.1 g/dL | Ht [6]: 43.9% | Lym [6]: 78.2% | MCH [6]: 19.4 pg | MCHC [6]: 34.5% | MCV [6]: 56.2 fL | Mono [6]: 2% | Neu [6]: 18% | PT [6]: 14.3 s | Plat [6]: 103.7 x10_4/uL | RBC [6]: 780.8 x10_4/ul | Ret [6]: 2.6% | WBC [6]: 94 x10_2/uL | KIDNEY_L [4]: 1.2 g | KIDNEY_R [4]: 1.2 g | KIDNEY_TOTAL [4]: 2.3 g | KIDNEY_L [5]: 1.3 g | KIDNEY_R [5]: 1.2 g | KIDNEY_TOTAL [5]: 2.5 g | KIDNEY_L [6]: 1.5 g | KIDNEY_R [6]: 1.5 g | KIDNEY_TOTAL [6]: 3 g | LIVER [4]: 13 g | LIVER [5]: 14.7 g | LIVER [6]: 16.7 g | A/G [7]: 0.9 | ALP [7]: 1790.8 IU/L | ALT [7]: 37 IU/L | AST [7]: 63.4 IU/L | BUN [7]: 13.4 mg/dL | CRE [7]: 0.2 mg/dL | Ca [7]: 11.4 mg/dL | Cl [7]: 105.6 meq/L | GLC [7]: 182 mg/dL | IP [7]: 6.8 mg/dL | K [7]: 4.3 meq/L | LDH [7]: 94.6 IU/L | Na [7]: 142.8 meq/L | PL [7]: 160.6 mg/dL | RALB [7]: 2.7 g/dL | TC [7]: 80.2 mg/dL | TG [7]: 136.8 mg/dL | TP [7]: 5.8 g/dL | gamma-GTP [7]: 1 IU/L | A/G [8]: 0.9 | ALP [8]: 1703.6 IU/L | ALT [8]: 35.6 IU/L | AST [8]: 63.6 IU/L | BUN [8]: 14.2 mg/dL | CRE [8]: 0.3 mg/dL | Ca [8]: 11.1 mg/dL | Cl [8]: 105.2 meq/L | GLC [8]: 179.4 mg/dL | IP [8]: 7 mg/dL | K [8]: 4.2 meq/L | LDH [8]: 95 IU/L | Na [8]: 143.4 meq/L | PL [8]: 158.4 mg/dL | RALB [8]: 2.7 g/dL | TC [8]: 80.8 mg/dL | TG [8]: 109.2 mg/dL | TP [8]: 5.8 g/dL | gamma-GTP [8]: 1 IU/L | A/G [9]: 0.8 | ALP [9]: 1187.4 IU/L | ALT [9]: 33.4 IU/L | AST [9]: 59.2 IU/L | BUN [9]: 14.2 mg/dL | CRE [9]: 0.3 mg/dL | Ca [9]: 11 mg/dL | Cl [9]: 105.6 meq/L | GLC [9]: 179.6 mg/dL | IP [9]: 6.5 mg/dL | K [9]: 3.9 meq/L | LDH [9]: 87 IU/L | Na [9]: 144.6 meq/L | PL [9]: 154.2 mg/dL | RALB [9]: 2.8 g/dL
